Laboratory results taken from patent US20260207621A1 (Vividion Therapeutics, Inc., priority 2022, published 2026).

Assays:
Nrf2 = Nrf2 antagonism assay: ARE luciferase reporter in KYSE-70 cells; type: cell-based; details: positive Imax corresponds to Nrf2 antagonism; for Emax: Homo sapiens, KYSE-70, KYSE-70 cells, read-out: KYSE70 Cellular ARE Luciferase Imax (%)
Source text: NRF2 binds to a promoter region, antioxidant response element (ARE), to initiate expression of multiple genes. ARE luciferase reporter assays are used to test whether a ligand can activate or repress the expression of target genes using luciferase as a reporter gene.
KYSE-70 is an esophageal squamous cell carcinoma cell line with a Nrf2 mutation at amino acid position W24C. This mutation lowers the affinity between the E3 ligase that includes KEAP1 and Nrf2, resulting in a state in which the synthesis rate of new Nrf2 is faster than the E3's degradation rate of Nrf2, resulting in a “Nrf2 high” state. In KYSE-70 cells, genes are inserted directly after the ARE that trigger the expression of luciferase. Without a NRF2 antagonist in this modified KYSE70 cell line which has an inherently “NRF2 high state”, luciferase is expressed, and a signal is observed.
Nrf2 antagonists bind at C151 of KEAP1 and stabilize the E3 which results in an increased degradation rate of Nrf2. Increased degradation of Nrf2 results in less expression of luciferase, and therefore a less intense signal.
An IC50 is generated from the dose-response curve and an Imax. A positive Imax corresponds to Nrf2 antagonism. Imax >90% correlates with in vivo tumor grown inhibition. Compounds with Imax >50% were included in this description.

KEAP1 C151 = molecular target: T1, KEAP1 C151 (Homo sapiens, UniProt Q14145); test: Nrf2 TMT measurement: in vitro TE50 for KEAP1 C151 (IA-DTB competition, targeted TMT mass spectrometry) in MDA-MB-468 cell lysate; type: binding; details: in vitro target engagement of KEAP1 C151, targeted TMT, read-out: KEAP1_C151 TE50
T1 construct: treating 500 μg of cell lysate generated from MDA-MB-468 breast cancer cells with DMSO or compound; endogenous in cells; host or cells: MDA-MB-468 breast cancer cell lysate
T1 sequence (Q14145 whole entry): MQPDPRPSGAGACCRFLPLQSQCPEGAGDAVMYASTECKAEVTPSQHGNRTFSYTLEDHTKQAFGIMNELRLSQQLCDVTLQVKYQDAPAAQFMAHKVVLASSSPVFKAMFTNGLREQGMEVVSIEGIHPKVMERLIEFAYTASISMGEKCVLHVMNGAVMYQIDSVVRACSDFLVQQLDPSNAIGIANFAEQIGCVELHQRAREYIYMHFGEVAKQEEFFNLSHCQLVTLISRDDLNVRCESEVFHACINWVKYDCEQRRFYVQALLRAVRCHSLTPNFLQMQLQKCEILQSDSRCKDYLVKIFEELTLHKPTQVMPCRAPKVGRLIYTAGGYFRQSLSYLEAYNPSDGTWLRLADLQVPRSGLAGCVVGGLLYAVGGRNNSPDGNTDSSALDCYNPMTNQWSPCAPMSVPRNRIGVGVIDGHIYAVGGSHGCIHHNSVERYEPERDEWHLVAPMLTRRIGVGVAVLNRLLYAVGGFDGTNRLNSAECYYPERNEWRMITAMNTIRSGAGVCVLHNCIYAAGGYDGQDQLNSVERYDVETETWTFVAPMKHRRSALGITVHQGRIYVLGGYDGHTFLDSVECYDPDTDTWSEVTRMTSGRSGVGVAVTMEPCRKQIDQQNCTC
Method: In vitro TE50 values for KEAP_C151 were obtained by treating 500 μg of cell lysate generated from MDA-MB-468 breast cancer cells with DMSO or compound for 1 hour at room temperature followed by the addition of 200 μM IA-DTB (in DMSO) for one hour at room temperature. Samples were then precipitated by the addition of 8× ice cold acetonitrile and incubated at −80° C. for two hours. Protein was then pelleted by centrifugation (4,200 RPM, 45 min, 4° C.). The pelleted material was resuspended in 9M Urea, 50 mM ammonium bicarbonate and proteins were reduced and alkylated by the addition of DTT and iodoacetamide (10 and 30 mM, respectively). Following reduction and alkylation, samples were exchanged into 2M urea (Zeba spin desalting plates, Thermo Fisher) and digested with Trypsin. IA-DTB labeled peptides were isolated with streptavidin agarose resin. Enriched peptides were eluted by the addition of 50% acetonitrile (ACN) 0.1% Formic Acid (FA) and dried in a SpeedVac vacuum concentrator.
Dried peptides were resuspended in 0.2 M EPPS pH 8.5 and treated with 6.5 μL of 11-plex tandem mass tag (TMT) (8.3 μg/μL in dry ACN) for 2 hours at room temperature. Reactions were quenched by the addition of 6.5 μL of 5% Hydroxylamine. Samples were then combined and desalted on a Biotage Evolute express ABN plate (600-0010-PX01).
Targeted TMT. Targeted TMT measurements were collected using an Orbitrap LumosTribrid Mass Spectrometer (Thermo Scientific) coupled to an UltiMate 3000 Series Rapid Separation LC system and autosampler (Thermo Scientific Dionex). Peptides were eluted onto a custom C18 capillary analytical column (75-μm inner diameter fused silica, packed with Acclaim PepMap C18 resin (Thermo Scientific)) using an Acclaim PepMap 100 (Thermo 164535) loading column, and separated at a flow rate of 1.0 μl min−1. Data were acquired using a specific MS3-based TMT method targeting the peptide containing KEAP1 C151 (C(+324.2)[…], +3 charge state) where MS2 peptide fragmentation is triggered upon detection of the peptide precursor ion. Subsequent MS3 analysis was then performed using pre-selected peptide fragment ions that were isolated for fragmentation using synchronous precursor selection. RAW files were converted to MZXML format and searched with the SEQUEST algorithm using the MassPike software package. TMT quantitation was performed with a filter requiring at least ten summed signal-to-noise for control channels. Quantified signals were used for dose response curve-fitting and IC50 calculation using R's drc package.

SMILES | Emax (Nrf2) [%] | IC50 (KEAP1 C151) [nM] | KYSE70 Cellular ARE Luciferase Imax (%) (Nrf2; KYSE-70 cells)
C=CC(=O)N1CCOCC1c1cc(Cl)nc(-c2cc[nH]c(=O)c2)c1 (single isomer, unassigned) [Compound 33, 4-(4-acryloylmorpholin-3-yl)-6-chloro-[2,4′-bipyridin]-2′(1′H)-one] | 82 | 120 | 
C=CC(=O)N1CCOCC1c1cc(Cl)cc(-c2ccc3nccnc3c2)c1 (single isomer, unassigned) [Compound 34, 1-(3-(3-chloro-5-(quinoxalin-6-yl)phenyl)morpholino)prop-2-en-1-one] | 83 | 18 | 
C=CC(=O)N1CCOCC1c1cc(Cl)cc(-c2ccnc(C)n2)c1 (single isomer, unassigned) [Compound 35, 1-(3-(3-chloro-5-(2-methylpyrimidin-4-yl)phenyl)morpholino)prop-2-en-1-one] | 89 | 17.8 | 
C=CC(=O)N1CCOCC1c1cc(Cl)cc(-c2cccn(C)c2=O)c1 (single isomer, unassigned) [Compound 36, 3-(3-(4-acryloylmorpholin-3-yl)-5-chlorophenyl)-1-methylpyridin-2(1H)-one] | 69 | 110 | 
C=CC(=O)N1CCOCC1c1cc(Cl)cc(-c2cnc3cccnc3c2)c1 (single isomer, unassigned) [Compound 37, 1-(3-(3-chloro-5-(1,5-naphthyridin-3-yl)phenyl)morpholino)prop-2-en-1-one] | 85 | 22 | 
C=CC(=O)N1CCOCC1c1cc(Cl)cc(-c2cc(C)ncn2)c1 (single isomer, unassigned) [Compound 38, 1-(3-(3-chloro-5-(6-methylpyrimidin-4-yl)phenyl)morpholino)prop-2-en-1-one] | 89 | 27 | 
C=CC(=O)N1CCS(=O)(=O)CC1c1cc(Cl)cc(-c2cc[nH]c(=O)c2)c1 (single isomer, unassigned) [Compound 39, 4-(3-(4-acryloyl-1,1-dioxidothiomorpholin-3-yl)-5-chlorophenyl)pyridin-2(1H)-one] | 66 | 49 | 
C=CC(=O)N1CCOCC1c1cc(Cl)cc(-c2ccnc(N)n2)c1 (single isomer, unassigned) [Compound 40, 1-(3-(3-(2-aminopyrimidin-4-y1)-5-chlorophenyl)morpholino)prop-2-en-1-one] | 93 | 40 | 
C=CC(=O)N1CCOCC1c1cc(Cl)cc(-c2nc[nH]n2)c1 (single isomer, unassigned) [Compound 41, 1-(3-(3-chloro-5-(1H-1,2,4-triazol-3-yl)phenyl)morpholino)prop-2-en-1-one] | 68 | 200 | 
C=CC(=O)N1CCOCC1c1cc(Cl)cc(-c2ccncn2)c1 (single isomer, unassigned) [Compound 42, 1-(3-(3-chloro-5-(pyrimidin-4-yl)phenyl)morpholino)prop-2-en-1-one] | 79 | 37 | 
C=CC(=O)N1CCOCC1c1cc(Cl)cc(-c2ccn3ccnc3c2)c1 (single isomer, unassigned) [Compound 43, 1-(3-(3-chloro-5-(imidazo[1,2-a]pyridin-7-yl)phenyl)morpholino)prop-2-en-1-one] | 87 | 25 | 
C=CC(=O)N1CCOC[C@H]1c1cc(Cl)cc(-c2ccc(F)c(C(N)=O)c2)c1 (single isomer, unassigned) [Compound 44] | 93 | 15.7 | 
C=CC(=O)N1CC(C)(C)OC[C@H]1c1cc(Cl)cc(-c2ncc(F)cn2)c1 (single isomer, unassigned) [Compound 45] | 83 | 89 | 
C=CC(=O)N1CC(C)(C)OC[C@H]1c1cc(Cl)cc(-c2cc(C)ncn2)c1 (single isomer, unassigned) [Compound 46] | 84 | 140 | 
C=CC(=O)N1CC(C)(C)OC[C@H]1c1cc(Cl)cc(-c2ccc3nccnc3c2)c1 (single isomer, unassigned) [Compound 47] | 74 | 20 | 
C=CC(=O)N1CC(C)(C)OC[C@H]1c1cc(Cl)cc(-c2ccnc(C)n2)c1 (single isomer, unassigned) [Compound 48] | 85 | 66 | 
C=CC(=O)N1CCOCC1c1cc(Cl)cc(-c2ccnc(OC)n2)c1 (single isomer, unassigned) [Compound 49, 1-(3-(3-chloro-5-(2-methoxypyrimidin-4-yl)phenyl)morpholino)prop-2-en-1-one] | 91 | 42 | 
C=CC(=O)N1CCS(=O)(=O)CC1c1cc(Cl)cc(-c2ccnc(C)n2)c1 (single isomer, unassigned) [Compound 50, 1-(3-(3-chloro-5-(2-methylpyrimidin-4-yl)phenyl)-1,1-dioxidothiomorpholino)prop-2-en-1-one] | 86 | 573 | 
C=CC(=O)N1CCS(=O)(=O)CC1c1cc(Cl)cc(-c2ccnc(C)n2)c1 (single isomer, unassigned) [Compound 51, 1-(3-(3-chloro-5-(2-methylpyrimidin-4-yl)phenyl)-1,1-dioxidothiomorpholino)prop-2-en-1-one] |  | 237 | 89
C=CC(=O)N1CCS(=O)(=O)CC1c1cc(Cl)cc(-c2cc(C)ncn2)c1 (single isomer, unassigned) [Compound 52, 1-(3-(3-chloro-5-(6-methylpyrimidin-4-yl)phenyl)-1,1-dioxidothiomorpholino)prop-2-en-1-one] | 80 | 174 | 
C=CC(=O)N1CCOCC1c1cc(Cl)cc(-c2cnn(C)c(=O)c2)c1 (single isomer, unassigned) [Compound 53, 5-(3-(4-acryloylmorpholin-3-y1)-5-chlorophenyl)-2-methylpyridazin-3(2H)-one] | 55 | 66 | 
C=CC(=O)N1CCOCC1c1cc(Cl)cc(-c2cnccn2)c1 (single isomer, unassigned) [Compound 54, 1-(3-(3-chloro-5-(pyrazin-2-yl)phenyl)morpholino)prop-2-en-1-one] | 70 | 49 | 
C=CC(=O)N1CCOC[C@H]1c1cc(Cl)cc(-c2ncnc3[nH]cnc23)c1 (single isomer, unassigned) [Compound 58] | 95 | 30.5 | 
C=CC(=O)N1CCOCC1c1cc(Cl)cc(-c2cc(C(N)=O)ccc2F)c1 (single isomer, unassigned) [Compound 60, 3′-(4-acryloylmorpholin-3-yl)-5′-chloro-6-fluoro-[1,1′-biphenyl]-3-carboxamide] | 70 | 58 | 
C=CC(=O)N1CC(C)(C)OC[C@H]1c1cc(Cl)cc(-c2ccc(F)c(C(N)=O)c2)c1 (single isomer, unassigned) [Compound 61] | 89 | 51.3 | 
C=CC(=O)N1CCOC[C@H]1c1cc(Cl)cc(-c2ncn(CC(N)=O)n2)c1 (single isomer, unassigned) [Compound 62] | 55 | 220 | 
C=CC(=O)N1CCOCC1c1cc(Cl)cc(-c2ccn3ccnc3n2)c1 (single isomer, unassigned) [Compound 63, 1-(3-(3-chloro-5-(imidazo[1,2-a]pyrimidin-7-yl)phenyl)morpholino)prop-2-en-1-one] | 63 | 3.3 | 
